Assay results reported in patent publication US9309242B2, “Substituted pyrido[2,3-b]pyrazines as FGFR kinase inhibitors” (priority 2011, dated 2016).
Like-named read-outs stand apart in the source and are kept apart here.

Legend:
[1] = target: T1, Ba/F3-KDR-transfected cells (Homo sapiens, UniProt P35968); experiment: Ba/F3-KDR (minus IL3) cellular proliferation assay, Alamar Blue; type: cell-based
T1 construct: BAF3-KDR (MIN IL3) pIC50; other: minus IL3
How it was run: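 Proliferation is measured as Alamar Blue relative fluorescence units following 24 h compound treatment of 20000 cells per well in 10% FBS medium. The IL3-supplemented run serves as a counterscreen under the same conditions.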

[2] = tested on: Ba/F3-Flt3-transfected cells; experiment: Ba/F3-Flt3 (plus IL3) cellular proliferation assay, counterscreen with 10 ng/ml murine IL3; type: cell-based; conditions: read-out: BAF3_FLT3 (PLUS IL3) pIC50 (converted)
Method: (§1) Ba/F3-Flt3 (Minus IL3 or Plus IL3) (Cellular Proliferation Assay)
(§2) In a 384 well plate, 100 nl of compound dilution in DMSO was sprayed before adding 50 μl cell culture medium (phenol red free RPMI-1640, 10% FBS, 2 mM L-Glutamine and 50 μg/ml Gentamycin) containing 20000 cells per well of Ba/F3-Flt3-transfected cells. Cells were put in an incubator at 37° C. and 5% CO2. After 24 hours, 10 μl of Alamar Blue solution (0.5 mM K3Fe(CN)6, 0.5 mM K4Fe(CN)6, 0.15 mM Resazurin and 100 mM Phosphate Buffer) was added to the wells, incubated for 4 hours at 37° C. and 5% CO2 before RFU's (Relative Fluorescence Units) (ex. 540 nm., em. 590 nm.) were measured in a fluororescence plate reader.
As a counterscreen the same experiment was performed in the presence of 10 ng/ml murine IL3.

[3] = target: T2, Ba/F3-Flt3-transfected cells (Homo sapiens, UniProt P36888, cells depend on it, form not given); experiment: Ba/F3-Flt3 (minus IL3) cellular proliferation assay, Alamar Blue; type: cell-based
T2 construct: BAF3-FLT3 (MIN IL3) pIC50; other: minus IL3
T2 sequence (P36888 1-993): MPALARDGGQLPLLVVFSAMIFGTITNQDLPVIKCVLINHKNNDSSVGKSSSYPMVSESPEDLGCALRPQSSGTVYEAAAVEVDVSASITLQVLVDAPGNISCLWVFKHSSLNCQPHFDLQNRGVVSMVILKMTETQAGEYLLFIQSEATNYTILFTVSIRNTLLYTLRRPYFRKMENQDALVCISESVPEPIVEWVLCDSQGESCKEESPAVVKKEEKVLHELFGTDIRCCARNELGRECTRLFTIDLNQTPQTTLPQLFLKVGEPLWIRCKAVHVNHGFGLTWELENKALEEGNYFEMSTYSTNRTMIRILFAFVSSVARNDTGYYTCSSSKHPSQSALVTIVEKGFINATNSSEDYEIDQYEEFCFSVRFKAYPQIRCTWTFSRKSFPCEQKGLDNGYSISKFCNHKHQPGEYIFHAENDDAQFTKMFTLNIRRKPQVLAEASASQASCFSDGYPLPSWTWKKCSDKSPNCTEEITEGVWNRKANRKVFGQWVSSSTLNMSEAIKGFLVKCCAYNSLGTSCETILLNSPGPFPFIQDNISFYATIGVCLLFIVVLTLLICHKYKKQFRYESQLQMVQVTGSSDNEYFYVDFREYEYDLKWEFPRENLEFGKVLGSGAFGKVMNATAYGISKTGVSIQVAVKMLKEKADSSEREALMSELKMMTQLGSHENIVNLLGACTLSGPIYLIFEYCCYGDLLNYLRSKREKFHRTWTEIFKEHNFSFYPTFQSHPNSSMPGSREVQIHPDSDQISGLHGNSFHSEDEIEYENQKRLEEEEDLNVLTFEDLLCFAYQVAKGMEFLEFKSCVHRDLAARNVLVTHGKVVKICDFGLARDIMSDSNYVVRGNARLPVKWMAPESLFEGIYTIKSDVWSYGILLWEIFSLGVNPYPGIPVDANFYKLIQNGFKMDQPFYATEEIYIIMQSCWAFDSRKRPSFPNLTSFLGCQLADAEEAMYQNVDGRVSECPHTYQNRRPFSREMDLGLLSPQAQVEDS
Method: as §1
as §2, with “reader. […]” for “reader.”

[4] = tested on: Ba/F3-FGFR3-transfected cells; experiment: Ba/F3-FGFR3 (plus IL3) cellular proliferation assay, counterscreen with 10 ng/ml murine IL3; type: cell-based; conditions: read-out: BAF3-FGFR3 (PLUS IL3) pIC50 (converted)
How it was run: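 Compound dilutions were dispensed first, then 20000 FGFR3-transfected Ba/F3 cells per well in serum-containing RPMI-1640 were added. After 24 h incubation at 37° C, Alamar Blue was applied for 4 h before relative fluorescence units were recorded. In the minus-IL3 format cells grow without cytokine; the other format contains 10 ng/ml murine IL3.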

[5] = plus IL3 (10 ng/ml murine IL3, counterscreen)

T1 sequence (P35968 whole entry, change not shown): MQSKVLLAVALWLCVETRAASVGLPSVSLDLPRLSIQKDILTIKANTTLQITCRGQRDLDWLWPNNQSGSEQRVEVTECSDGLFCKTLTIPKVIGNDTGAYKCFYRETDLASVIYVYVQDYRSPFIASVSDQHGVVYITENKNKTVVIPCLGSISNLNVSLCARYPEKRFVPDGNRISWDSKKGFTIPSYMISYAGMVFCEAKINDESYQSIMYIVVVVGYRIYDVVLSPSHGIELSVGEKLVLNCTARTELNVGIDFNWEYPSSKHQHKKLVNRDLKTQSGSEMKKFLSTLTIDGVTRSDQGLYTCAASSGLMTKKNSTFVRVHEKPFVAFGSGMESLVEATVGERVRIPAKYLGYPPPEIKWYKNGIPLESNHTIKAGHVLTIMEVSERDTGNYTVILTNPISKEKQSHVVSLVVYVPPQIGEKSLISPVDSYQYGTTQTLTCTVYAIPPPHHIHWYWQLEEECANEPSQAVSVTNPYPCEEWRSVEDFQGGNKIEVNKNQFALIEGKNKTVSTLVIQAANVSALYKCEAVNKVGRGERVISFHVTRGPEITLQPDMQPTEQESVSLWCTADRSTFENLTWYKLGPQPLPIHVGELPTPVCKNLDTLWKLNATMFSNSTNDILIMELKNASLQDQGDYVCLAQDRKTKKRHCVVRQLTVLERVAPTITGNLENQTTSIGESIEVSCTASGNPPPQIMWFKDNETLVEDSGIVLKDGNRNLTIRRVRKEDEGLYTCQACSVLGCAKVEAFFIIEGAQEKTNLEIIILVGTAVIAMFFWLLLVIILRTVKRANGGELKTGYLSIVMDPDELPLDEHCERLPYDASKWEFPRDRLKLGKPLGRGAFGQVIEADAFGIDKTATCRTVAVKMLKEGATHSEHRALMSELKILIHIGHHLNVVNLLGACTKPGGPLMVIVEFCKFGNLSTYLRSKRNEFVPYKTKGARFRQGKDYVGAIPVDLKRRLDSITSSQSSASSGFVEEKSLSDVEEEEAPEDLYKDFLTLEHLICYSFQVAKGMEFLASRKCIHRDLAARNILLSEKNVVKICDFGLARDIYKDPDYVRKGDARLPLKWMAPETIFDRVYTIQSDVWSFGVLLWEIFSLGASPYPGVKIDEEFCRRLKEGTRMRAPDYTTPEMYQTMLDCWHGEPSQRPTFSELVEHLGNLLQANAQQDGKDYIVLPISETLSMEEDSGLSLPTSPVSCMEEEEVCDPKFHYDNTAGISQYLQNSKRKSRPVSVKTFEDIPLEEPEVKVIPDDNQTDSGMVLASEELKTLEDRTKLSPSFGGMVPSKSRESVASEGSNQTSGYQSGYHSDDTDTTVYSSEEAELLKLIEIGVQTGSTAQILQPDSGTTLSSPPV

SMILES | BAF3-KDR (MIN IL3) pIC50 [1] | IC50 [2, 5] [µM] | BAF3-FLT3 (MIN IL3) pIC50 [3] | melting point [°C] | IC50 [4, 5] [µM] | IC50 [2] [µM] | IC50 [4] [µM]
COc1cc(OC)c(F)c(N(CCCO)c2ccc3ncc(-c4cnn(C)c4)nc3n2)c1F (single isomer, unassigned) [Compound 16] | 6.2 | > 10 | 5.18 | 208 | > 10 |  | 
COc1cc(OC)cc(N(CC#Cc2ncccc2OC)c2ccc3ncc(-c4cnn(C)c4)nc3n2)c1 [Compound 26] | <5 | > 10 | <5 | 190 | > 10 |  | 
COc1cc(OC)c(F)c(N(Cc2cnccn2)c2ccc3ncc(-c4cnn(C)c4)nc3n2)c1F [Compound 10] | 6.2 | > 10 | 5.12 |  | > 10 |  | 
COc1cc(OC)c(F)c(N(Cc2cn(S(=O)(=O)N(C)C)cn2)c2ccc3ncc(-c4cnn(C)c4)nc3n2)c1 [Compound 36] | 5.67 | > 10 | <5 |  | > 10 |  | 
CNCCn1/c(=N/c2cc(OC)cc(OC)c2F)ccc2ncc(-c3cnn(C)c3)nc21 [Compound 38] | 5.13 | > 10 | <5 |  | > 10 |  | 
COCC(O)CN(c1cc(OC)cc(OC)c1)c1ccc2ncc(-c3cnn(C)c3)nc2n1 (stereo not shown) [Compound 7] | 5.1 | > 10 | <5 | 65 | > 10 |  | 
COc1cc(OC)c(F)c(N(CCO)c2ccc3ncc(-c4cnn(C)c4)nc3n2)c1F [Compound 20] | 6.53 | > 10 | 5.23 |  | > 10 |  | 
COc1cc(/N=c2\ccc3ncc(-c4cnn(C)c4)nc3n2CCNC(C)C)c(F)c(OC)c1 [Compound 37] | 6.11 | > 10 | <5 |  | > 10 |  | 
CNCCN(c1ccc2ncc(-c3cnn(C)c3)nc2n1)c1c(F)c(OC)cc(OC)c1F [Compound 3] | 6.48 |  |  | 159 | > 10 |  | 
COCC(O)CN(c1ccc2ncc(-c3cnn(C)c3)nc2n1)c1c(F)c(OC)cc(OC)c1F (stereo not shown) [Compound 50] | 6.23 |  |  | 162 to 163 | > 10 |  | 
COc1cc(OC)c(F)c(N(c2ccc3ncc(-c4cnn(C)c4)nc3n2)C(CO)COC(C)C)c1 (single isomer, unassigned) [Compound 76] | <5 |  |  | 137 to 138 | > 10 |  | 
COc1cc(OC)cc(N(CC2CCCCO2)c2ccc3ncc(-c4cnn(C)c4)nc3n2)c1 (stereo not shown) [Compound 129] | 5.33 |  |  | 137 | > 10 |  | 
CNCCN(c1ccc2ncc(-c3cnn(C)c3)nc2n1)c1cc(OC)cc(OC)c1F [Compound 39] | ~6.19 |  | <5 |  |  | > 10 | > 10
Cn1cc(-c2cnc3ccc(N(Cc4ncc[nH]4)c4cc(F)cc(F)c4)nc3n2)cn1 [Compound 27] | <5 | > 10 | <5 |  | > 10 |  | 
COc1cc(OC)c(F)c(N(Cc2ncccn2)c2ccc3ncc(-c4cnn(C)c4)nc3n2)c1 [Compound 9] | 5.95 |  | <5 | 227 |  | > 10 | > 10
COc1cc(OC)c(F)c(N(CC2COC(=O)N2)c2ccc3ncc(-c4cnn(C)c4)nc3n2)c1 (single isomer, unassigned) [Compound 111] | 5.61 |  |  | 202 | > 10 |  | 
COCC(O)CN(c1ccc2ncc(-c3cnn(C)c3)nc2n1)c1cc(OC)cc(OC)c1F (single isomer, unassigned) [Compound 58] | 5.97 |  |  | 94 to 95 | > 10 |  | 
COc1cc(OC)c(F)c(N(CCNC(C)C)c2ccc3ncc(-c4cnn(C)c4)nc3n2)c1F [Compound 5] | 6.35 | > 10 |  | 183 | > 10 |  | 
